From US12398154B2, “Azaquinazoline pan-KRas inhibitors” (Mirati Therapeutics, Inc., priority 2020, dated 2025)

Experiments:
Assay in all cases: biochemical
KRas G12D = KRas G12D (Homo sapiens, UniProt P01116, G12D);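 further: TR-FRET displacement binding assay on KRas, read after a one-hour incubation at room temperature, IC50 fitted from percent-of-control values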
Procedure: (§1) The ability of a compound to bind to KRas was measured using a TR-FRET displacement assay. […] After a 60-minute incubation at room temperature, the reaction was measured using a BMG LABTECH CLARIO star Plus via TR-FRET. […] The POC values were fit to a 4-parameter IC50 equation and the IC50 value reported.

KRas G12V = KRas G12V (Homo sapiens, UniProt P01116, G12V);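 further: KRas binding measured by TR-FRET displacement at room temperature, IC50 fitted from percent of control values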
KRas G12V, sequence (P01116 1-169 isoform P01116-2 G12V): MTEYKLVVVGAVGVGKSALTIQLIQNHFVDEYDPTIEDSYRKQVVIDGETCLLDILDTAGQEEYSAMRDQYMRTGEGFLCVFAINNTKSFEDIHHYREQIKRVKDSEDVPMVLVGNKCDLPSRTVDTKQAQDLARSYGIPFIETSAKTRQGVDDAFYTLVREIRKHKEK
Procedure: as §1

KRas G12R = KRas G12R (Homo sapiens, UniProt P01116, G12R);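 further: TR-FRET displacement assay of compound binding to KRas, read after one hour at room temperature, potency from a four-parameter fit of percent-of-control values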
KRas G12R, sequence (P01116 1-169 isoform P01116-2 G12R): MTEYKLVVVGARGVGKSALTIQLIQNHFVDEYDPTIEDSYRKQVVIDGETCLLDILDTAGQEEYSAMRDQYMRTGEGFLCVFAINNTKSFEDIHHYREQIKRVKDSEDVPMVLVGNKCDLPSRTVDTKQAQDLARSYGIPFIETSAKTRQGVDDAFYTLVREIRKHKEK
Procedure: as §1

KRas G12A = KRas G12A (Homo sapiens, UniProt P01116, G12A);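 further: binding to KRas measured by TR-FRET displacement after one hour at room temperature, IC50 from a four-parameter fit of percent-of-control values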
KRas G12A, sequence (P01116 1-169 isoform P01116-2 G12A): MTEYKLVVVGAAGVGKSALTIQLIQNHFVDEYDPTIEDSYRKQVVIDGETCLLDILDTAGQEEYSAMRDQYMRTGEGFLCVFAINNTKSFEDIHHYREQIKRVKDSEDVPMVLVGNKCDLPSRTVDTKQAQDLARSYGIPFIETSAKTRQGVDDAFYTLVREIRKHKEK
Procedure: as §1

KRas G12S = KRas G12S (Homo sapiens, UniProt P01116, G12S);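 further: TR-FRET displacement binding to KRas, read after one hour incubation at room temperature, IC50 from four-parameter fit of percent of control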
KRas G12S, sequence (P01116 1-169 isoform P01116-2 G12S): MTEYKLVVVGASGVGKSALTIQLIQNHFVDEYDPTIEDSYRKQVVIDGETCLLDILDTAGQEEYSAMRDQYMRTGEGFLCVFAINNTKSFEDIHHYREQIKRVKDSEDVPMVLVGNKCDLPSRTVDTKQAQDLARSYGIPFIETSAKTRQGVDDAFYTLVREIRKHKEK
Procedure: as §1

KRas G12C = KRas G12C (Homo sapiens, UniProt P01116, G12C);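 further: binding to KRas assessed by TR-FRET displacement after one hour incubation at room temperature, potency fitted from percent-of-control values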
KRas G12C, sequence (P01116 1-169 isoform P01116-2 G12C): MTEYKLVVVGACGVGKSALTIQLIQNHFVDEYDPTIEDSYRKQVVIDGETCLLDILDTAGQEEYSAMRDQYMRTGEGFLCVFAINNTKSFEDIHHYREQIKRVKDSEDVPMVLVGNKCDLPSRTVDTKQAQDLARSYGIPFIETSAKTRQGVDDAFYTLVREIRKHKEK
Procedure: as §1

KRas WT = KRas WT (Homo sapiens, UniProt P01116);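 further: binding to KRas read as TR-FRET displacement after a one-hour room-temperature incubation, IC50 derived from percent-of-control values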
KRas WT, sequence (P01116 1-169 isoform P01116-2): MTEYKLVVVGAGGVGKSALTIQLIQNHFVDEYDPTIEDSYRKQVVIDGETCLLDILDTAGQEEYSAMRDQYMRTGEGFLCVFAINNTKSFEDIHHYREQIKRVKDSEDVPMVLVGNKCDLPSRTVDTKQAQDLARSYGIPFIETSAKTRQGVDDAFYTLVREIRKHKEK
Procedure: as §1

KRas G12D, sequence (P01116 1-169 isoform P01116-2 G12D): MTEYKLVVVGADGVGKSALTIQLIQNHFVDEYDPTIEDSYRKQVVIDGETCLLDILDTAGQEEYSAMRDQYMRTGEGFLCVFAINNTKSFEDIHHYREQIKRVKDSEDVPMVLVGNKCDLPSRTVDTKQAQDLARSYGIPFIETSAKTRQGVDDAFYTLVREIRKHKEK

| Structure (SMILES) | IC50 (KRas G12D) | IC50 (KRas G12V) | IC50 (KRas G12R) | IC50 (KRas G12A) | IC50 (KRas G12S) | IC50 (KRas G12C) | IC50 (KRas WT) |
| --- | --- | --- | --- | --- | --- | --- | --- |
| O=C1NC(=O)C2(COCCN(c3nc(OCC45CCCN4CCC5)nc4c(F)c(-c5cccc6cccc(F)c56)ncc34)C2)N1 (stereo not drawn) [Example 272, 10-(8-fluoro-7-(8-fluoronaphthalen-1-yl)-2-((hexahydro-1H-pyrrolizin-7a-yl)methoxy)pyrido[4,3-d]pyrimidin-4-yl)-7-oxa-1,3,10-triazaspiro[4.6]undecane-2,4-dione] | 0.194 µM | 0.13 µM | 0.12 µM | 0.138 µM | 0.132 µM | 0.141 µM | 0.116 µM |
| Cc1cccc2cccc(-c3ncc4c(N5CCCC6(CC(=O)N6)C5)nc(OCC56CCCN5CCC6)nc4c3F)c12 (stereo not drawn) [Example 450, 6-(8-fluoro-2-((hexahydro-1H-pyrrolizin-7a-yl)methoxy)-7-(8-methylnaphthalen-1-yl)pyrido[4,3-d]pyrimidin-4-yl)-1,6-diazaspiro[3.5]nonan-2-one] | 0.25 µM | 0.238 µM | 0.344 µM | 0.356 µM | 0.276 µM | 0.235 µM | 0.335 µM |
| O=C1NCC2(CCCN(c3nc(OCC45CCCN4CCC5)nc4c(F)c(-c5cccc6cccc(CO)c56)ncc34)C2)N1 (stereo not drawn) [Example 453, 7-(8-fluoro-2-((hexahydro-1H-pyrrolizin-7a-yl)methoxy)-7-(8-(hydroxymethyl)naphthalen-1-yl)pyrido[4,3-d]pyrimidin-4-yl)-1,3,7-triazaspiro[4.5]decan-2-one] | 0.274 µM | 0.569 µM | 1.12 µM | 0.559 µM | 0.459 µM | 0.484 µM | 0.467 µM |
| NS(=O)(=O)CC1CCCN(c2nc(OCC34CCCN3CCC4)nc3c(F)c(-c4cccc5cccc(Cl)c45)ncc23)C1 (stereo not drawn) [Example 281, 1-(1-(7-(8-chloronaphthalen-1-yl)-8-fluoro-2-((tetrahydro-1H-pyrrolizin-7a(5H)-yl)methoxy)pyrido[4,3-d]pyrimidin-4-yl)piperidin-3-yl)methanesulfonamide] | 0.213 µM | 0.17 µM | 0.081 µM | 0.059 µM | 0.067 µM | 0.075 µM | 0.061 µM |
| Cc1cc2[nH]ncc2c(-c2ncc3c(N4CCCC(C)(O)C4)nc(OC[C@@]45CCCN4C[C@H](F)C5)nc3c2F)c1C (stereo partly drawn) [Example 471] | 0.309 µM | 0.427 µM | 1.07 µM | 0.332 µM | 0.391 µM | 0.459 µM | 0.362 µM |
| O=C1NC(=O)C2(CCCCN(c3nc(OCC45CCCN4CCC5)nc4c(F)c(-c5cccc6cccc(F)c56)ncc34)C2)N1 (stereo not drawn) [Example 267, 7-(8-fluoro-7-(8-fluoronaphthalen-1-yl)-2-((hexahydro-1H-pyrrolizin-7a-yl)methoxy)pyrido[4,3-d]pyrimidin-4-yl)-1,3,7-triazaspiro[4.6]undecane-2,4-dione] | 4.37 µM | 1.71 µM | 1.72 µM | 2.5 µM | 2.07 µM | 2.25 µM | 1.56 µM |
| CCc1cccc2cccc(-c3ncc4c(N5CCCC6(CNC(=O)C6)C5)nc(OCC56CCCN5CCC6)nc4c3F)c12 (stereo not drawn) [Example 286, 7-(7-(8-ethylnaphthalen-1-yl)-8-fluoro-2-((hexahydro-1H-pyrrolizin-7a-yl)methoxy)pyrido[4,3-d]pyrimidin-4-yl)-2,7-diazaspiro[4.5]decan-3-one] | 0.313 µM | 0.521 µM | 0.674 µM | 0.37 µM | 0.407 µM | 0.41 µM | 0.608 µM |
| O=C1NC(=O)C2(CCCN(c3nc(OCC45CCCN4CCC5)nc4c(F)c(-c5cccc6cccc(Cl)c56)ncc34)C2)N1 (stereo not drawn) [Example 282, 7-(7-(8-chloronaphthalen-1-yl)-8-fluoro-2-((hexahydro-1H-pyrrolizin-7a-yl)methoxy)pyrido[4,3-d]pyrimidin-4-yl)-1,3,7-triazaspiro[4.5]decane-2,4-dione] | 0.03 µM | 0.015 µM | 0.018 µM | 0.016 µM | 0.015 µM | 0.016 µM | 0.015 µM |
| O=C1CC2(CCCN(c3nc(OCC45CCCN4CCC5)nc4c(F)c(-c5cccc6cccc(CCF)c56)ncc34)C2)N1 (stereo not drawn) [Example 470, 6-(8-fluoro-7-(8-(2-fluoroethyl)naphthalen-1-yl)-2-((hexahydro-1H-pyrrolizin-7a-yl)methoxy)pyrido[4,3-d]pyrimidin-4-yl)-1,6-diazaspiro[3.5]nonan-2-one] | 0.406 µM | 0.355 µM | 0.503 µM | 0.347 µM | 0.341 µM | 0.348 µM | 0.475 µM |
| Cc1cc(-c2ncc3c(N4CCCC(C)(O)C4)nc(OCC45CCCN4CCC5)nc3c2F)c2cn[nH]c2c1 (stereo not drawn) [Example 431, 1-(8-fluoro-7-(6-methyl-1H-indazol-4-yl)-2-((tetrahydro-1H-pyrrolizin-7a(5H)-yl)methoxy)pyrido[4,3-d]pyrimidin-4-yl)-3-methylpiperidin-3-ol] | 9.62 µM | 15.9 µM | 34.4 µM | 19.6 µM | 19.7 µM | 17.9 µM | 19.7 µM |
| Cc1cccc2cccc(-c3ncc4c(N5CCCC(c6nc[nH]n6)C5)nc(OCC56CCCN5CCC6)nc4c3F)c12 (stereo not drawn) [Example 455, 4-(3-(1H-1,2,4-triazol-3-yl)piperidin-1-yl)-8-fluoro-2-((hexahydro-1H-pyrrolizin-7a-yl)methoxy)-7-(8-methylnaphthalen-1-yl)pyrido[4,3-d]pyrimidine] | 6.35 µM | 5.15 µM | 4.51 µM | 5.99 µM | 8.17 µM | 8.47 µM | 11.7 µM |
| NS(=O)(=O)CC1CCCN(c2nc(OCC34CCCN3CCC4)nc3c(F)c(-c4cccc5cccc(C(F)F)c45)ncc23)C1 (stereo not drawn) [Example 463, 1-(1-(7-(8-(difluoromethyl)naphthalen-1-yl)-8-fluoro-2-((hexahydro-1H-pyrrolizin-7a-yl)methoxy)pyrido[4,3-d]pyrimidin-4-yl)piperidin-3-yl)methanesulfonamide] | 6.49 µM | 3.06 µM | 1.36 µM | 1.55 µM | 1.4 µM | 2.15 µM | 2.4 µM |
| CCc1cccc2cccc(-c3ncc4c(N5CC6C(=O)NC(=O)C6C5)nc(OCC56CCCN5CCC6)nc4c3F)c12 (stereo not drawn) [Example 292, 5-(7-(8-ethylnaphthalen-1-yl)-8-fluoro-2-((hexahydro-1H-pyrrolizin-7a-yl)methoxy)pyrido[4,3-d]pyrimidin-4-yl)tetrahydropyrrolo[3,4-c]pyrrole-1,3(2H,3aH)-dione] | 0.021 µM | 0.061 µM | 0.18 µM | 0.097 µM | 0.026 µM | 0.088 µM | 0.068 µM |
| O=S1(=O)CC(CNc2nc(OCC34CCCN3CCC4)nc3c(F)c(-c4cccc5cccc(CO)c45)ncc23)C1 [Example 443, 3-(((8-fluoro-2-((hexahydro-1H-pyrrolizin-7a-yl)methoxy)-7-(8-(hydroxymethyl)naphthalen-1-yl)pyrido[4,3-d]pyrimidin-4-yl)amino)methyl)thietane1,1-dioxide] | 53 µM | 4.21 µM | 6.38 µM | 8.47 µM | 6.31 µM | 8.2 µM | 18.8 µM |
| O=C1NCC2(CCCN(c3nc(OCC45CCCN4CCC5)nc4c(F)c(-c5cccc6cccc(Cl)c56)ncc34)C2)N1 (stereo not drawn) [Example 284, 7-(7-(8-chloronaphthalen-1-yl)-8-fluoro-2-((hexahydro-1H-pyrrolizin-7a-yl)methoxy)pyrido[4,3-d]pyrimidin-4-yl)-1,3,7-triazaspiro[4.5]decan-2-one] | 0.038 µM | 0.041 µM | 0.058 µM | 0.046 µM | 0.045 µM | 0.044 µM | 0.046 µM |
| CCc1cccc2cccc(-c3ncc4c(N5CCOCC(C)(O)C5)nc(OCC56CCCN5CCC6)nc4c3F)c12 (stereo not drawn) [Example 291, 4-(7-(8-ethylnaphthalen-1-yl)-8-fluoro-2-((hexahydro-1H-pyrrolizin-7a-yl)methoxy)pyrido[4,3-d]pyrimidin-4-yl)-6-methyl-1,4-oxazepan-6-ol] | 0.14 µM | 0.277 µM | 0.439 µM | 0.229 µM | 0.192 µM | 0.161 µM | 0.269 µM |
| CCc1cccc2cccc(-c3ncc4c(N5CCCC6(CNC(=O)N6)C5)nc(OCC56CCCN5CCC6)nc4c3F)c12 (stereo not drawn) [Example 294, 7-(7-(8-ethylnaphthalen-1-yl)-8-fluoro-2-((hexahydro-1H-pyrrolizin-7a-yl)methoxy)pyrido[4,3-d]pyrimidin-4-yl)-1,3,7-triazaspiro[4.5]decan-2-one] | 0.009 µM | 0.009 µM | 0.015 µM | 0.013 µM | 0.012 µM | 0.013 µM | 0.014 µM |
| O=C1CC2(CCCN(c3nc(OCC45CCCN4CCC5)nc4c(F)c(-c5cccc6cccc(C(F)F)c56)ncc34)C2)N1 (stereo not drawn) [Example 466, 6-(7-(8-(difluoromethyl)naphthalen-1-yl)-8-fluoro-2-((hexahydro-1H-pyrrolizin-7a-yl)methoxy)pyrido[4,3-d]pyrimidin-4-yl)-1,6-diazaspiro[3.5]nonan-2-one] | 2.32 µM | 1.66 µM | 2.26 µM | 3.31 µM | 2.14 µM | 2.31 µM | 2.68 µM |
